The test has as its target Plk1 (Homo sapiens, UniProt P53350). Description: biochemical.

As a reminder, the Ki is a dissociation constant, usually derived from enzyme kinetics or from competition with a known ligand. Low values mean tighter binding, high ones weaker binding.

Chain of Plk1 (P53350 20-338): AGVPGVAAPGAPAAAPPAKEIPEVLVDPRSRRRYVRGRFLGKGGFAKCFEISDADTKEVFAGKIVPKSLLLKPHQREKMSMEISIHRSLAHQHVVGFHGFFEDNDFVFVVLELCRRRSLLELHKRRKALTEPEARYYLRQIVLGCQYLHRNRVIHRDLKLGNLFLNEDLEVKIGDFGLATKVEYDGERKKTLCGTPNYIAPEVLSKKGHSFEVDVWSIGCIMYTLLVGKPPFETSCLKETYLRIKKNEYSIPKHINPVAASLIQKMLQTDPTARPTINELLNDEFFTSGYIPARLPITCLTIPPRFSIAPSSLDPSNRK

Consider `CNC(=O)c1ccc(Nc2ncc3c(n2)N(C2CCCC2)CC(C)(C)C(=O)N3C)cc1` [Compound I-80, 4-(9-cyclopentyl-6,7,8,9-tetrahydro-5,7,7-trimethyl-6-oxo-5H-pyrimido[4,5-b][1,4]diazepin-2-ylamino)-N-methylbenzamide], for which the inhibition constant Ki was under 10 nM.
Then `CN1C(=O)C(C)(C)CN(C2CCCC2)c2nc(Nc3cccc4[nH]ncc34)ncc21` [Compound I-81, 2-(1H-indazol-4-ylamino)-9-cyclopentyl-8,9-dihydro-5,7,7-trimethyl-5H-pyrimido[4,5-b][1,4]diazepin-6(7H)-one], with 10 to 100 nM; and `CN1CCN(c2ccc(Nc3ncc4c(n3)N(C3CCCC3)CC(C)(C)C(=O)N4C)cc2)CC1` [Compound I-85, 2-(4-(4-methylpiperazin-1-yl)phenylamino)-9-cyclopentyl-8,9-dihydro-5,7,7-trimethyl-5H-pyrimido[4,5-b][1,4]diazepin-6(7H)-one], with under 10 nM; and `CN1C(=O)C(C)(C)CN(C2CCCC2)c2nc(Nc3ccc(CN4CCOCC4)cc3)ncc21` [Compound I-86], with 10 to 100 nM.
In the case of `CN1C(=O)C(C)(C)CN(C2CCCC2)c2nc(Nc3ccc(C(=O)NCCO)cc3)ncc21` [Compound I-87, 4-(9-cyclopentyl-6,7,8,9-tetrahydro-5,7,7-trimethyl-6-oxo-5H-pyrimido[4,5-b][1,4]diazepin-2-ylamino)-N-(2-hydroxyethyl)benzamide] it was under 10 nM; in that of `CN1C(=O)C(C)(C)CN(C2CCCC2)c2nc(Nc3cccc4cn[nH]c34)ncc21` [Compound I-89, 2-(1H-indazo-7-ylamino)-9-cyclopentyl-8,9-dihydro-5,7,7-trimethyl-5H-pyrimido[4,5-b][1,4]diazepin-6(7H)-one], 10 to 100 nM; in that of `CN1C(=O)C(C)(C)CN(C2CCCC2)c2nc(Nc3ccccc3)ncc21` [Compound I-90, 9-cyclopentyl-8,9-dihydro-5,7,7-trimethyl-2-(phenylamino)-5H-pyrimido[4,5-b][1,4]diazepin-6(7H)-one], 10 to 100 nM.
Then `CN1C(=O)C(C)(C)CN(C2CCCC2)c2nc(Nc3cccc4cn(C)nc34)ncc21` [Compound I-91, 2-(2-methyl-2H-indazol-7-ylamino)-9-cyclopentyl-8,9-dihydro-5,7,7-trimethyl-5H-pyrimido[4,5-b][1,4]diazepin-6(7H)-one], with 10 to 100 nM.
Compound `CN1C(=O)C(C)(C)CN(C2CCCC2)c2nc(Nc3cccn4ncnc34)ncc21` [Compound I-92, 2-([1,2,4]triazolo[1,5-a]pyridin-8-ylamino)-9-cyclopentyl-8,9-dihydro-5,7,7-trimethyl-5H-pyrimido[4,5-b][1,4]diazepin-6(7H)-one] returned an inhibitory constant (Ki) of 10 to 100 nM.
In the case of `COc1cc(C(=O)NC2CC2)ccc1Nc1ncc2c(n1)N(C1CCCC1)CC(C)(C)C(=O)N2C` [Compound I-93, 4-(9-cyclopentyl-6,7,8,9-tetrahydro-5,7,7-trimethyl-6-oxo-5H-pyrimido[4,5-b][1,4]diazepin-2-ylamino)-N-cyclopropyl-3-methoxybenzamide] it was under 10 nM; in that of `COc1cc(C(=O)NC2CCC2)ccc1Nc1ncc2c(n1)N(C1CCCC1)CC(C)(C)C(=O)N2C` [Compound I-94, 4-(9-cyclopentyl-6,7,8,9-tetrahydro-5,7,7-trimethyl-6-oxo-5H-pyrimido[4,5-b][1,4]diazepin-2-ylamino)-N-cyclobutyl-3-methoxybenzamide], under 10 nM; in that of `COc1cc(C(=O)NC2CCN(C(=O)OC(C)(C)C)CC2)ccc1Nc1ncc2c(n1)N(C1CCCC1)CC(C)(C)C(=O)N2C` [Compound I-95], under 10 nM.
In the case of `CNC(=O)c1ccc(Nc2ncc3c(n2)N([C@@H]2CCCN(C)C2)CC(C)(C)C(=O)N3C)c(OC)c1` [Compound I-96, 4-(6,7,8,9-tetrahydro-5,7,7-trimethyl-9-((R)-1-methylpiperidine-3-yl)-6-oxo-5H-pyrimido[4,5-b][1,4]diazepin-2-ylamino)-3-methoxy-N-methylbenzamide] it was under 10 nM; in that of `CNC(=O)c1ccc(Nc2ncc3c(n2)N(C2CCN(C)CC2)CC(C)(C)C(=O)N3C)c(OC)c1` [Compound I-97, 4-(6,7,8,9-tetrahydro-5,7,7-trimethyl-9-((R)-1-methylpiperidine-4-yl)-6-oxo-5H-pyrimido[4,5-b][1,4]diazepin-2-ylamino)-3-methoxy-N-methylbenzamide], 10 to 100 nM.
Then `Cc1cc(O)n(-c2ccc(Nc3ncc4c(n3)N(C3CCCC3)CC(C)(C)C(=O)N4C)cc2)n1` [Compound I-98, 2-(4-(5-hydroxy-3-methyl-1H-pyrazol-1-yl)phenylamino)-9-cyclopentyl-8,9-dihydro-5,7,7-trimethyl-5H-pyrimido[4,5-b][1,4]diazepin-6(7H)-one], with 10 to 100 nM; and `CN1C(=O)C(C)(C)CN(C2CCCC2)c2nc(Nc3ccc(-c4cc[nH]n4)cc3)ncc21` [Compound I-99, 2-(4-(1H-pyrazol-3-yl)phenylamino)-9-cyclopentyl-8,9-dihydro-5,7,7-trimethyl-5H-pyrimido[4,5-b][1,4]diazepin-6(7H)-one], with under 10 nM.
Regarding `COc1cc(C(=O)NC2CCNCC2)ccc1Nc1ncc2c(n1)N(C1CCCC1)CC(C)(C)C(=O)N2C` [Compound I-101], the Ki is under 10 nM.
Then `COc1ccccc1Nc1ncc2c(n1)N(C1CCCC1)CC(C)(C)C(=O)N2C` [Compound I-102, 2-(2-methoxyphenylamino)-9-cyclopentyl-8,9-dihydro-5,7,7-trimethyl-5H-pyrimido[4,5-b][1,4]diazepin-6(7H)-one], with 10 to 100 nM; and `COC(=O)Nc1ccc(Nc2ncc3c(n2)N(C2CCCC2)CC(C)(C)C(=O)N3C)c(OC)c1` [Compound I-103, Methyl 4-(9-cyclopentyl-5,7,7-trimethyl-6-oxo-6,7,8,9-tetrahydro-5H-pyrimido[4,5-b][1,4]diazepin-2-ylamino)-3-methoxyphenylcarbamate], with under 10 nM.
In the case of `COCC(=O)Nc1ccc(Nc2ncc3c(n2)N(C2CCCC2)CC(C)(C)C(=O)N3C)c(OC)c1` [Compound I-104, N-(4-(9-cyclopentyl-5,7,7-trimethyl-6-oxo-6,7,8,9-tetrahydro-5H-pyrimido[4,5-b][1,4]diazepin-2-ylamino)-3-methoxyphenyl)-2-methoxyacetamide] it was under 10 nM; in that of `COc1cc(C(=O)NCC(F)(F)F)ccc1Nc1ncc2c(n1)N(C1CCCC1)CC(C)(C)C(=O)N2C` [Compound I-105], under 10 nM; in that of `CN1C(=O)C(C)(C)CN(C2CCCC2)c2nc(Nc3ccc4[nH]c(=O)[nH]c4c3)ncc21` [Compound I-108, 2-(2,3-dihydro-2-oxo-1H-benzo[d]imidazol-6-ylamino)-9-cyclopentyl-8,9-dihydro-5,7,7-trimethyl-5H-pyrimido[4,5-b][1,4]diazepin-6(7H)-one], under 10 nM.
In the case of `CN1C(=O)C(C)(C)CN(C2CCCC2)c2nc(Nc3ccc4[nH][nH]c(=O)c4c3)ncc21` [Compound I-109, 2-(2,3-dihydro-3-oxo-1H-indazol-5-ylamino)-9-cyclopentyl-8,9-dihydro-5,7,7-trimethyl-5H-pyrimido[4,5-b][1,4]diazepin-6(7H)-one] it was 10 to 100 nM.
On to `CN1C(=O)C(C)(C)CN(C2CCCC2)c2nc(Nc3ccc4c(cnn4C)c3)ncc21` [Compound I-110, 2-(1-methyl-1H-indazol-5-ylamino)-9-cyclopentyl-8,9-dihydro-5,7,7-trimethyl-5H-pyrimido[4,5-b][1,4]diazepin-6(7H)-one], for which the Ki lay within 10 to 100 nM.
Then `CC(=O)Nc1cccc(Nc2ncc3c(n2)N(C2CCCC2)CC(C)(C)C(=O)N3C)c1` [Compound I-111, N-(3-(9-cyclopentyl-6,7,8,9-tetrahydro-5,7,7-trimethyl-6-oxo-5H-pyrimido[4,5-b][1,4]diazepin-2-ylamino)phenyl)acetamide], with 10 to 100 nM; and `CC(=O)Nc1ccc(Nc2ncc3c(n2)N(C2CCCC2)CC(C)(C)C(=O)N3C)cc1` [Compound I-112, N-(4-(9-cyclopentyl-6,7,8,9-tetrahydro-5,7,7-trimethyl-6-oxo-5H-pyrimido[4,5-b][1,4]diazepin-2-ylamino)phenyl)acetamide], with 10 to 100 nM; and `CC[C@H]1CN(C2CCCC2)c2nc(Nc3ccc(C(=O)NC4CCN(C)CC4)cc3OC)ncc2N(C)C1=O` [Compound I-113, 4-((S)-9-cyclopentyl-7-ethyl-6,7,8,9-tetrahydro-5-methyl-6-oxo-5H-pyrimido[4,5-b][1,4]diazepin-2-ylamino)-3-methoxy-N-(1-methylpiperidin-4-yl)benzamide], with under 10 nM.
Then `CN1C(=O)C(C)(C)CN(C2CCCC2)c2nc(Nc3ccc4[nH]ncc4c3)ncc21` [Compound I-114, 2-(1H-indazo-5-ylamino)-9-cyclopentyl-8,9-dihydro-5,7,7-trimethyl-5H-pyrimido[4,5-b][1,4]diazepin-6(7H)-one], with 10 to 100 nM; and `CN1C(=O)C(C)(C)CN(C2CCCC2)c2nc(Nc3cccc(N)c3)ncc21` [Compound I-116, 2-(3-aminophenylamino)-9-cyclopentyl-8,9-dihydro-5,7,7-trimethyl-5H-pyrimido[4,5-b][1,4]diazepin-6(7H)-one], with 10 to 100 nM; and `CN1C(=O)C(C)(C)CN(C2CCCC2)c2nc(Nc3ccc(N)cc3)ncc21` [Compound I-117, 2-(4-aminophenylamino)-9-cyclopentyl-8,9-dihydro-5,7,7-trimethyl-5H-pyrimido[4,5-b][1,4]diazepin-6(7H)-one], with 10 to 100 nM.
In the case of `CCc1cc(C(=O)NC)ccc1Nc1ncc2c(n1)N(C1CCCC1)CC(C)(C)C(=O)N2C` [Compound I-118, 4-(9-cyclopentyl-6,7,8,9-tetrahydro-5,7,7-trimethyl-6-oxo-5H-pyrimido[4,5-b][1,4]diazepin-2-ylamino)-3-ethyl-N-methylbenzamide] it was under 10 nM; in that of `CC[C@H]1CN(C2CCCC2)c2nc(Nc3ccc(C(=O)NC4CCC4)cc3OC)ncc2N(C)C1=O` [Compound I-119, 4-((S)-9-cyclopentyl-7-ethyl-6,7,8,9-tetrahydro-5-methyl-6-oxo-5H-pyrimido[4,5-b][1,4]diazepin-2-ylamino)-N-cyclobutyl-3-methoxybenzamide], under 10 nM.

These data come from patent US8394952B2 (Vertex Pharmaceuticals Incorporated, priority 2006, dated 2013).
